Like-named read-outs stand apart in the source and are kept apart here.
Key:
[1] = cited from earlier work
[2] = Plasma pharmacokinetics in mice (another study, Table 2); format: in vivo; settings: mouse
Protocol: In another study, liposome-entrapped bortezomib was administered to mice and the pharmacokinetic parameters were determined. The liposomes were composed of 22:0PC/mPEG-DSPE and were prepared as described in Example 7.

[3] = Pharmacokinetics in plasma, blood and tumor of SCID mice bearing CWR22 tumors (Example 7); format: in vivo; settings: for AUC(0-t): read-out: AUC(0-24 h)
Protocol: Liposome formulations prepared as described herein were administered in vivo to mice. As described in Example 7, liposomes comprised of 22:0PC/mPEG-DSPE (95/5) and containing entrapped bortezomib were prepared and administered intravenously to tumor-bearing mice. A control group of mice was treated with bortezomib sold under the trade name VELCADE®, which is a mixture of bortezomib in mannitol. FIGS. 11A-11C show the concentration, in ng/mL, of bortezomib in plasma (FIG. 11A), blood (FIG. 11B) and tumor (FIG. 11C) for the drug in free form (diamonds) or entrapped in liposomes (squares).
Blood and tumor samples were taken at various time points. The bortezomib concentrations in blood, plasma and tumor tissues were determined by LC-MS.

[4] = male, SCID, mouse, iv, Plasma, mice, i.v. 0.8 mg/kg
[5] = male, SCID, mouse, iv, Tumor, mice, i.v. 0.8 mg/kg
[6] = male, SCID, mouse, iv, Whole Blood, mice, i.v. 0.8 mg/kg

**Q.** For `CC(C)C[C@H](NC(=O)[C@H](Cc1ccccc1)NC(=O)c1cnccn1)B(O)O` [bortezomib], which maximum tolerated dose ([1]; intravenous bolus on days 1, 4, 8, and 11 of a 3-week cycle) is on record?
**A.** 1.56 mg/m^2

**Q.** What about the maximum tolerated dose ([1]; patients with solid tumors, intravenously once or twice weekly) of the same molecule?
**A.** 1.3 mg/m^2

**Q.** And the concentration at 5 min ([2]; intravenous, read-out: Conc. At 5 min.)?
**A.** 423 ± 33.6 ng/mL

**Q.** What about the AUC(0-t) ([2]; iv, read-out: AUC(0-24 h)) of the same molecule?
**A.** 271 ng·h/mL

**Q.** And the clearance ([2]; iv, read-out: CL-obs (converted))?
**A.** 0.897 mL/min

**Q.** And the Vd ([2]; iv, read-out: Vss)?
**A.** 0.37 L

**Q.** What about the “CL(app) = dose/AUC24 h” value ([3]; Whole Blood) of the same molecule?
**A.** 0.358 mL/min/kg

**Q.** And the clearance ([3]; male, SCID, mouse, intravenous, 0.8 mg/kg, Plasma, estimated using T½α phase, read-out: CL-obs (converted))?
**A.** 0.222 mL/min/kg

**Q.** What about the Vd ([3]; male, SCID, mouse, intravenous, 0.8 mg/kg, Plasma, estimated using T½α phase, read-out: Vss-obs) of the same molecule?
**A.** 0.0427 L/kg

**Q.** And the Cmax [3, 4]?
**A.** 23500 ng/mL

**Q.** And the AUC(0-t) [3, 4]?
**A.** 59800 ng·h/mL

**Q.** And the half-life ([3]; male, SCID, mouse, iv, Plasma, mice, i.v. 0.8 mg/kg, read-out: T1/2(α) (converted))?
**A.** 2.7 h

**Q.** And the Cmax [3, 5]?
**A.** 674 ng/mL

**Q.** And the AUC(0-t) [3, 5]?
**A.** 12800 ng·h/mL

**Q.** What about the Cmax [3, 6] of the same molecule?
**A.** 10300 ng/mL

**Q.** And the AUC(0-t) [3, 6]?
**A.** 37200 ng·h/mL

Source: patent US20090092661A1, “LIPOSOME COMPOSITIONS FOR IN VIVO ADMINISTRATION OF BORONIC ACID COMPOUNDS” (priority 2007, published 2009)
